Experimental data from patent US20170296505A1, “LONG-CHAIN CARBOXYCHROMANOLS AND ANALOGS FOR USE AS ANTI-INFLAMMATORY AGENTS” (Purdue Research Foundation, priority 2008, published 2017).
Read-outs that look alike come from different tables or passages of the source.

Tests used:
[1] = LC-MS analysis of fecal samples of mice fed δTE-13′; assay type: in vivo; details: mice fed with δTE-13′
From the text: FIG. 6. Detection of δTE-13′-1 in fecal samples.

[2] = test system: IL-1beta-stimulated PGE2 formation in A549 cells; assay: IL-1beta-stimulated PGE2 formation with or without sesamin (Table 4); assay type: cell-based, human; details: IL-1beta 2 ng/ml, 8 h; 13′-COOH 2.5 uM, sesamin 1 uM
Description: Briefly, A549 cells were stimulated with IL-1beta (2 ng/ml) in the presence of DMSO (ctrl, 0.1%), control with sesamin (1 uM), 13′-COOH (structure 1) at 2.5 uM, 13′-COOH with sesamin (1 uM). Basal control was cells incubated with medium without IL-1beta. Eight hours later, media were collected and PGE2 was measured by ELISA.

[3] = test system: PGE2 in IL-1β treated A549 cells; assay: PGE2 generation during chronic IL-1β treatment; assay type: cell-based, human; details: for IC50: read-out: concentration to cause 50% inhibition of PGE2, in the presence of exogenous AA (5 μM, 5 min) after co-incubation with IL-1β
Description: (§1) A549 cells were pre-incubated with different concentrations of tocopherols in the presence or absence of 1 μM sesamin for 15 h, and then treated with IL-1β (2 ng/mL) for 24 h. PGE2 in the cell-culture media was measured by ELISA assays. Results are the averages of three independent experiments and expressed as Mean±SEM.
as §1, with “tocotrienols” for “tocopherols”
PGE2 generation during chronic IL-1β treatment—2.5−3×10^5 A549 cells per well were seeded in RPMI-1640 with 10% of FBS and allowed to attach overnight in a 24-well plate. Vitamin E stock solutions were initially made in DMSO and then diluted in 10 mg/mL of bovine serum albumin. Confluent cells were incubated in DMEM containing 1% FBS with DMSO (control) or vitamin E forms for 14-16 h and then 2 ng/ml of IL-1β was introduced for 24 hours. The medium was then collected and PGE2 accumulation was measured using ELISA assay from Cayman Chemicals (Ann Arbor, Mich.).
Statistical analysis—The unpaired student's t-test was used in the statistical analysis. All results are expressed as mean±SD. Activation of human lung epithelial A549 cells by IL-1β leads to a strong up-regulation of COX-2 protein expression and almost 100-fold increase of PGE2 generation. This cellular system has been employed to evaluate inhibitory potency of anti-inflammatory drugs, including COX inhibitors and was previously used by us to study the effect of α-T, γ-T and γ-CEHC on PGE2 formation (13, 20). […] Inhibition of PGE2 by γ-T, and γ-TE was also observed in the presence of exogenous AA, where after co-incubated with vitamin E forms and IL-1β, cells were incubated with fresh media containing 5 μM of AA for 5 min.

A549 cells [4] = assay: Cell viability of confluent A549 cells (MTT); assay type: cell-based, human; details: 100% confluent cells, 1% FBS
5-LOX = biological target: T1, 5-LOX (Homo sapiens, UniProt P09917); assay: 5-LOX inhibition with purified human enzyme (Table 3); assay type: biochemical; details: mean±SEM
T1 sequence (P09917 1-674): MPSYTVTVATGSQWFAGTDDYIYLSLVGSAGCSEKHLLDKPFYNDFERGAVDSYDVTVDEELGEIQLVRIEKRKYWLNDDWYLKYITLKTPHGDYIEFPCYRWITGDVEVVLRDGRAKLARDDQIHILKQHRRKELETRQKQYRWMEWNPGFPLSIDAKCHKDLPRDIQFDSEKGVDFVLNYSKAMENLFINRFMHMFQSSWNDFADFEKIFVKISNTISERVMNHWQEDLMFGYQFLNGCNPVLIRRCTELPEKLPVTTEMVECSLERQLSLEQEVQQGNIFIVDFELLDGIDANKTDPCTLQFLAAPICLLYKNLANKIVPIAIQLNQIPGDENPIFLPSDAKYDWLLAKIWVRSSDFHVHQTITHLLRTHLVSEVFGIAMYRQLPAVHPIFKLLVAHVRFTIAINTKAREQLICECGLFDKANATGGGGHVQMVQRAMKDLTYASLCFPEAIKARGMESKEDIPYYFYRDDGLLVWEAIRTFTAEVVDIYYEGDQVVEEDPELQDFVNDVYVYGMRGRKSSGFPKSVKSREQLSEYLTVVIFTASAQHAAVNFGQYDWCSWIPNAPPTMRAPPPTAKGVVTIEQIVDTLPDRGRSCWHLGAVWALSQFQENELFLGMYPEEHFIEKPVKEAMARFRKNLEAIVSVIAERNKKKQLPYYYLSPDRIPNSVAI
From the text: Results are mean±SEM based on four or more independent experiments.

COX-2 [5] = biological target: T2, COX-2 (Homo sapiens, UniProt P35354); assay: COX-2 inhibition with purified human enzyme (Table 3); assay type: biochemical; set-up: A549 cells were pre-treated with 0.5-1 ng/mL of IL-1β- for 6 hours to induce COX-2 expression; endogenous in cells; details: mean±SEM
T2 sequence (P35354 18-604): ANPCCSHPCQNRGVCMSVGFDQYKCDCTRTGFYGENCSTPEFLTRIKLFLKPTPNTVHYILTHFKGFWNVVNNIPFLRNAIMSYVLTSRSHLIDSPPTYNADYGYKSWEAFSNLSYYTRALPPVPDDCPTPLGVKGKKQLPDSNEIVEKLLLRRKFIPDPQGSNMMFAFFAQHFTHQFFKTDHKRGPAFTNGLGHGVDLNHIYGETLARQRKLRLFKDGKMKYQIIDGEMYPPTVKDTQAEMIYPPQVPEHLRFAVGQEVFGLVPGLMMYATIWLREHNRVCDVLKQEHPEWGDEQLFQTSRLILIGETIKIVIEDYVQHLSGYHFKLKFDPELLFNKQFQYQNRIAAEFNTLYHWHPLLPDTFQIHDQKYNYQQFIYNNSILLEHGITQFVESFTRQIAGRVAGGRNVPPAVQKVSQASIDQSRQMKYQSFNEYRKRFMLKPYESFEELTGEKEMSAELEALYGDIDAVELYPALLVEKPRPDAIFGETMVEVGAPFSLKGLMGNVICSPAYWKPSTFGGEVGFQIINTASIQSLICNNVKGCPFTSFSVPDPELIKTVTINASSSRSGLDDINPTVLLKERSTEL
From the text: Free radical biology & medicine 95, 190-199. Results are mean±SEM based on four or more independent experiments.

A549 cells [6] = assay: Metabolites of vitamin E forms in A549 conditioned media (HPLC); assay type: in vitro ADME, human; details: 20 μM
Description: FIG. 3A illustrates that unconjugated long-chain carboxychromanols but not sulfated derivatives inhibited COX-2 activity in intact cells. […] Sulfated metabolites were the sum of 9′S, 11′S and 13′S, and unconjugated metabolites are the sum of 9′, 11′ and 13′. Conditioned media were obtained by incubation of A549 cells with γ-TE at 20 μM for 24, 48 and 72 h. Metabolites were extracted and measured using HPLC assay. The conditioned media were then used for the activity assay as described in FIG. 2A and 2B. Unsulfated/sulfated is the ratio of the sum of 9′, 11′ and 13′ to that of 9′S, 11′S and 13′S. All the results are expressed as Mean±SD. […]
Quantitation of vitamin E metabolites in conditioned media—Long-chain carboxychromanols and their sulfated counterparts were quantitated by a HPLC assay with fluorescent detection (17). […]
Extracted metabolites were separated using HPLC and detected by a Shimadzu RF-10AXL spectrofluorometric detector (Shimadzu, Columbia, Md.) with the excitation and emission wavelength at 292 nm and 327 nm, respectively. […] Long-chain metabolites were quantified using tocopherols as the external standards with a correction factor based on the linear relationship between fluorescent intensity and solvent content (17).

ovine COX-1 = biological target: T3, ovine COX-1 (Ovis aries, UniProt P05979); assay: COX-1 activity assay using purified enzyme; assay type: biochemical
T3 construct: purchased Cayman Chemicals (Ann Arbor, Mich.)
T3 sequence (P05979 25-600): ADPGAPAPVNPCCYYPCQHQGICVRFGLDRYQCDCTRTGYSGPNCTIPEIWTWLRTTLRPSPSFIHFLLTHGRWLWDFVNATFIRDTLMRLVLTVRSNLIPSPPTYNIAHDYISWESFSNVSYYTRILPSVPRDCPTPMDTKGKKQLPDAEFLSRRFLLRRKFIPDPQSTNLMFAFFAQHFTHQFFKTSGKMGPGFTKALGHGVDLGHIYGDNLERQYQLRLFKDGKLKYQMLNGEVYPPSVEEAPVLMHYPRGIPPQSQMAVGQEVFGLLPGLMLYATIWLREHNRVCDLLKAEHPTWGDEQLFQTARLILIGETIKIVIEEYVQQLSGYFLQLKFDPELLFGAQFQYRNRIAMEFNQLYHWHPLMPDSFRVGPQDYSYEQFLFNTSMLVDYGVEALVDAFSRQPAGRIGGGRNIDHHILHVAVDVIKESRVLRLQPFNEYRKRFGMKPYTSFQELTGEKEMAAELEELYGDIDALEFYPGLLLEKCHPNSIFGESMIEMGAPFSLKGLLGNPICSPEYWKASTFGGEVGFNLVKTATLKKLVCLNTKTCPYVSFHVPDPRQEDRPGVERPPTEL
Description: (§2) COX-1 and COX -2 activity assay using purified enzymes—The enzymatic reactions were performed in 0.1M Tris (pH 8.0), in the presence of 5 mM EDTA, 2 mM phenol, and 1 μM heme. […] Enzymatic reactions were initiated by addition of AA at a final concentration of 5 μM for 2 min. The reaction was stopped by addition of 0.1 M HCl. Stannous chloride in 0.1 M HCl was then added to reduce PGG2 and PGH2 to PGF2a. After addition of 0.5 vol of […] NaCl, prostaglandins formed in the reaction were extracted using 2.5 vol of ethyl acetate and the organic layer was completely dried under N2. PGF2a, and PGE2 were quantified using ELISA assays from Cayman Chemicals.

COX-2 [7] = biological target: T2, COX-2; assay: COX-2 activity assay using purified enzyme; assay type: biochemical; set-up: purchased Cayman Chemicals (Ann Arbor, Mich.); details: at 250 μM
Description: as §2

C/C(=C\CCC1(C)CCc2cc(O)cc(C)c2O1)CC/C=C(\C)CCCC(C)C(=O)O (centres unmarked) [δTE-13′-1]
formation in fecal samples [1]: detected

c1cc2c(cc1[C@H]1OC[C@H]3[C@@H]1CO[C@@H]3c1ccc3c(c1)OCO3)OCO2 [sesamin, reference compound]
PGE2 [2]: 12.46 ± 1.4 ng/mL
effect on PGE2 generation ([3]; sesamin alone at 1 μM): did not affect

Cc1cc(O)cc2c1OC(C)(CCCC(C)CCCC(C)CCCC(C)C)CC2 (centres unmarked) [δ-T]
cell viability (MTT, cell morphology) (A549 cells [4]; 25-50 μM): did not show significant effects
IC50 (5-LOX): > 50 µM
IC50 (COX-2 [5]): > 50 µM
IC50 ([3]; Homo sapiens, A549, 5 min): 10 µM

CC(C)=CCC/C(C)=C/CC/C(C)=C/CC[C@]1(C)CCc2cc(O)c(C)c(C)c2O1 [γ-TE, γ-tocotrienol]
cell viability (MTT, cell morphology) (A549 cells [4]; 20 μM): did not show significant effects
share of metabolites that are sulfated carboxychromanols (A549 cells [6]; 72-h incubation): more than 85%
share of metabolites that are unconjugated carboxychromanols (A549 cells [6]; first 24-h incubation): 90%
effect of sesamin on the inhibitory potency on PGE2 ([3]; in the presence of 1 μM sesamin): moderately diminished
IC50 [3]: 10 µM

CC(=O)Nc1ccc(O)cc1 [Acetaminophen, reference compound]
inhibition of COX-1 (ovine COX-1; at 250 μM): did not significantly inhibit
IC50 COX-1 (ovine COX-1; purified enzyme, Not inhibit: 9′ at 20 μM, acetaminophen at 250 μM): Not inhibit*
inhibition of COX-2 (COX-2 [7]): did not significantly inhibit

Cc1c(O)cc2c(c1C)OC(C)(CCCC(C)CCCC(C)CCCC(C)C)CC2 (centres unmarked) [γ-T]
cell viability (MTT, cell morphology) (A549 cells [4]; 25-50 μM): did not show significant effects
IC50 (5-LOX): > 50 µM
IC50 (COX-2 [5]): > 50 µM
IC50 ([3]; Homo sapiens, A549, 5 min): 25 µM

CC(C)=CCC/C(C)=C/CC/C(C)=C/CC[C@]1(C)CCc2c(C)c(O)c(C)c(C)c2O1 [α-TE, α-Tocotrienol]
inhibition of PGE2 formation ([3]; at 20 μM, A549 cells co-treated with IL-1β): 20%
